Results taken from patent US20080312192A1, “Diaryl Urea Derivatives in the Treatment of Protein Kinase Dependent Diseases” (priority 2003, published 2008).

Columns and labels:
RET = molecular target: T1, RET (Homo sapiens, UniProt P07949); assay: RET kinase inhibition (33P incorporation into poly(Glu,Tyr), GST-wtRET or GST-RET-Men2B); format: biochemical
T1 construct: expresses the amino acid region 658-1072 (Swiss prot No. Q9BTB0); made in house; host or cells: Sf9 insect cells (baculovirus, vector pFB-GSTX3)
T1 sequence (P07949 658-1072 isoform P07949-2): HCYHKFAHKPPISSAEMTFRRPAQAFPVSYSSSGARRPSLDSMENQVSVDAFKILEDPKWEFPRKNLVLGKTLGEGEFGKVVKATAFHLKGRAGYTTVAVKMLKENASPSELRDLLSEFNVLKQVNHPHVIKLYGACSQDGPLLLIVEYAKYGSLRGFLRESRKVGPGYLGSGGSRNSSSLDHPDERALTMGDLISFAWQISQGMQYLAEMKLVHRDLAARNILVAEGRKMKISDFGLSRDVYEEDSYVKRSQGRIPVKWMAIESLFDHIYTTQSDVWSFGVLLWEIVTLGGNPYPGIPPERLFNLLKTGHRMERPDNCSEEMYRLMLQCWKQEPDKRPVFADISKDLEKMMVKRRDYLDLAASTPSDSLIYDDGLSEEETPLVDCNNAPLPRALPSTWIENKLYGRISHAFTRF
Experimental: RET kinase inhibition is determined as follows:
The coding sequence for the cytoplasmic domain of wtRET is amplified by PCR from a cDNA library using specific primers. RET-Men2B is generated through site-directed mutagenesis resulting in the M918T mutation. The amplified DNA fragments and the pFB-GSTX3 vector are made compatible for ligation by digestion with SalI and KpnI. Ligation of these DNA fragments results in the baculovirus donor plasmids […] and pFB-GX3-RET-Men2B, respectively.
Production of virus: The baculovirus donor plasmids containing the kinase domains are transfected into the DH10Bac cell line (GIBCO) and the transfected cells are plated on selective agar plates. Colonies without insertion of the fusion sequence into the viral genome (carried by the bacteria) are blue. Single, white colonies are picked and viral DNA (bacmid) is isolated from the bacteria by standard plasmid purification procedures. Sf9 cells or Sf21 cells (American Type Culture Collection) are then transfected in 25 cm^2 flasks with the viral DNA using Cellfectin reagent.
Protein expression in Sf9 cells: Virus-containing media is collected from the transfected cell culture and used for infection to increase its titer. Virus-containing media obtained after two rounds of infection is used for large-scale protein expression. For large-scale protein expression 100 cm^2 round tissue culture plates are seeded with 5×10^7 cells/plate and infected with 1 mL of virus-containing media (approximately 5 MOIs). After 3 days, the cells are scraped off the plate and centrifuged at 500 rpm for 5 minutes. Cell pellets from 10-20, 100 cm^2 plates are re-suspended in 50 mL of ice-cold lysis buffer (25 mM Tris-HCl, pH 7.5, 2 mM EDTA, 1% NP-40, 1 mM DTT, 1 mM PMSF). The cells are stirred on ice for 15 minutes and then centrifuged at 5,000 rpms for 20 minutes.
(§1) Purification of GST-tagged proteins: The centrifuged cell lysate is loaded onto a 2 mL glutathione-sepharose column (Pharmacia) and washed 3× with 10 mL of 25 mM Tris-HCl, pH 7.5, 2 mM EDTA, 1 mM DTT, 200 mM NaCl. The GST-tagged proteins are then eluted by 10 applications (1 mL each) of 25 mM Tris-HCl, pH 7.5, 10 mM reduced-glutathione, 100 mM NaCl, 1 mM DTT, 10% glycerol and stored at −70° C.
Measure of enzyme activity: Tyrosine protein kinase assays with either purified GST-wtRET or GST-RET-Men2B protein are carried out in a final volume of 30 μL containing 15 ng of either GST-RET or GST-RET-Men2B protein, 20 mM Tris-HCl, pH 7.5, 1 mM MnCl2, 10 mM MgCl2, 1 mM DTT, 3 μg/mL poly(Glu, Tyr) 4:1, 1% DMSO, 2.0 μM ATP (γ-[^33P]-ATP 0.1 μCi). The activity is assayed in the presence or absence of inhibitors, by measuring the incorporation of ^33P from [γ^33P] ATP into poly(Glu, Tyr) 4:1. […] Subsequently, 40 μL of the reaction mixture are transferred onto Immobilon-PVDF membrane (Millipore) previously soaked for 5 minutes with methanol, rinsed with water, then soaked for 5 minutes with 0.5% H3PO4 and mounted on vacuum manifold with disconnected vacuum source. After spotting all samples, vacuum is connected and each well rinsed with 200 μL 0.5% H3PO4. Membranes are removed and washed 4× on a shaker with 1.0% H3PO4, once with ethanol. Membranes are counted after drying at ambient temperature, mounting in Packard TopCount 96-well frame, and addition of 10 μl/well of Microscint™ (Packard). […] One unit of protein kinase activity is defined as 1 nmole of ^33P transferred from [γ^33P] ATP to the substrate protein/minute/mg of protein at 37° C.

ITD-Ba/F3 = details: Mus musculus, BaF3, 48 h, read-out: Inhibition of Flt-3 dependent Proliferation (ED50) ITD-mutant
Experimental: (§2) Inhibition of Proliferation in Flt-3 Dependent Ba/F3 Cells:
(§3) The compound's potential to penetrate cell membranes and exert antiproliferative effects is determined in Ba/F3 cells dependent on mutated [ITD or D835Y; Gilliland and Griffin, Blood, Vol. 100, No. 5, 153242 (2002)] Flt-3 receptor kinases.
(§4) A modified protocol of the YO-PRO-1 assay in a 96-well format is based on the use of the wild-type IL-3-dependent hematopoietic cell line Ba/F3 (DSMZ, Braunschweig, Germany) and the mutant sub-lines ITD-Ba/F3 or D835Y-Ba/F3 [Weisberg et al., Cancer Cell 1 (5):433-43 (2000)] expressing constitutively activating Flt-3 kinases.
(§5) ITD-FLT3- or D835Y-FLT3-Ba/F3 cells are diluted in fresh medium to a final concentration of 3×10^5 cells per ml and 50 μl aliquots seeded into 96-well plates (1.5×10^4 cells per well). Subsequently, 50 μl 2× compound solutions were added and cells incubated for 48 h. The anti-proliferative and apoptotic activity of a compound is initially tested in triplicates at 10 μM, 1 μM and 0.1 μM concentration on both cell lines. Cells treated with DMSO alone (added to a final concentration of 0.1%) always serves as a control. In addition, a plate blank value is routinely determined in a well containing only 100 μl of medium and no cells.
(§6) To further profile a compound an ED50 determination is done starting at 10 μM or 3 μM of the compound of interest. From those concentrations, stepwise nine dilutions are prepared reaching the final concentrations of 2 μM and 0.5 μM, respectively.
(§7) Activity of inhibitors is assessed by the YO-PRO-1 assay as previously described in [Idziorek et al., J. Immunol. […] Briefly, after the treatment period of 48 h, a 25 μl aliquot of a solution containing 100 mM sodium citrate, pH 4.0, 134 mM sodium chloride and 12.5 μM YO-PRO-1 dye (YO-PRO-1 iodide, #Y3603, Molecular Probes) is directly added to the 100 μl medium in the wells of the 96-well plate. That results in a final dye concentration of 2.5 μM, the plate is then incubated for 10 min at ambient temperature in the dark. The uptake of the YO-PRO-1 dye into cells is assessed by a first measurement using a Cytofluor II 96-well plate reader (PerSeptive Biosystems) with the following settings: Excitation (nm) 485120 and Emission (nm) 530/25, Gain 75. After this first reading, 25 μl of lysis buffer consisting of 20 mM sodium citrate, pH 4.0, 26.8 mM sodium chloride, 0.4% NP40, 20 mM EDTA and 20 mM is added to each well. Cell lysis is completed within 60 min at room temperature and total amount of YO-PRO-1 bound to DNA is determined by a second measurement using the Cytofluor II 96-well reader with the identical setting as described above.

D835Y-Ba/F3 = details: Mus musculus, BaF3, 48 h, read-out: Inhibition of Flt-3 dependent Proliferation (ED50) D835-mutant
Experimental: as §2, §3, §4, §5, §6, §7

Flt-3 = molecular target: T2, Flt-3 (Homo sapiens, UniProt P36888); assay: Flt-3 kinase inhibition (GST-Flt-3, 33P incorporation into poly(Glu,Tyr)); format: biochemical
T2 construct: amino acids 563-993 of the cytoplasmic kinase domain of human Flt-3; made in house; host or cells: Sf9 insect cells (baculovirus, vector pFbacG01)
T2 sequence (P36888 563-993): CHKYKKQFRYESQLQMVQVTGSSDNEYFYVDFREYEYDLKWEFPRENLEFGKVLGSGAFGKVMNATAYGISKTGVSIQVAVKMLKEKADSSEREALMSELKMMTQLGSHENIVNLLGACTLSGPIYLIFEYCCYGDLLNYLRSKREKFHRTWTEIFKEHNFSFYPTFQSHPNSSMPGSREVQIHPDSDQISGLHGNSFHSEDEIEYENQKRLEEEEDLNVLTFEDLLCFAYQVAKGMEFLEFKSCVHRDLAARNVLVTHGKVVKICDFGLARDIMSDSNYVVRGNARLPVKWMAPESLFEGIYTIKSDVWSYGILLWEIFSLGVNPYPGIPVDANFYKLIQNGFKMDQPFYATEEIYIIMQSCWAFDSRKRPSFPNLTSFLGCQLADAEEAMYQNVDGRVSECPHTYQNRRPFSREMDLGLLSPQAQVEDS
Experimental: Flt-3 kinase inhibition is determined as follows: The baculovirus donor vector pFbacG01 (GIBCO) is used to generate a recombinant baculovirus expressing the amino acid region amino acids 563-993 of the cytoplasmic kinase domain of human Flt-3. The coding sequence for the cytoplasmic domain of Flt-3 is amplified by PCR from human c-DNA libraries (Clontech). The amplified DNA fragments and the pFbacG01 vector are made compatible for ligation by digestion with BamHI and HindIII. Ligation of these DNA fragments results in the baculovirus donor plasmid pFbacG01-Flt-3. The production of the viruses, the expression of proteins in Sf9 cells and the purification of the GST-fused proteins are performed as follows:
Production of virus: The baculovirus donor plasmid (pFbacG01-Flt-3) containing the Flt-3 kinase domain is transfected into the DH10Bac cell line (GIBCO) and the transfected cells are plated on selective agar plates. Colonies without insertion of the fusion sequence into the viral genome (carried by the bacteria) are blue. Single white colonies are picked and viral DNA (bacmid) is isolated from the bacteria by standard plasmid purification procedures. Sf9 or Sf21 cells (American Type Culture Collection) are then transfected in flasks with the viral DNA using Cellfectin reagent.
Protein expression in Sf9 cells: Virus containing media is collected from the transfected cell culture and used for infection to increase its titre. Virus containing media obtained after two rounds of infection is used for large-scale protein expression. For large-scale protein expression 100 cm^2 round tissue culture plates are seeded with 5×10^7 cells/plate and infected with 1 mL of virus-containing media (approx. 5 MOIs). After 3 days the cells are scraped off the plate and centrifuged at 500 rpm for 5 min. Cell pellets from 10-20, 100 cm^2 plates are resuspended in 50 mL of ice-cold lysis buffer (25 mM Tris-HCl, pH 7.5, 2 mM EDTA-1% NP-40. 1 mM DTT, 1 mM PMSF). The cells are stirred on ice for 15 min and then centrifuged at 5000 rpms for 20 min.
as §1, with “protein:” for “proteins:”, “three times” for “3×”, “protein is” for “proteins are”, “Glycerol” for “glycerol”
Measurement of enzyme activity: Tyrosine protein kinase assays with purified GST-Flt-3 protein are carried out in a final volume of 30 μL containing 200-1800 ng of enzyme protein (depending on the specific activity), 20 mM Tris-HCl, pH 7.6, 3 mM MnCl2, 3 mM MgCl2, 1 mM DTT, 10 μM Na3VO4, 3 μg/mL poly(Glu, Tyr) 4:1, 1% DMSO, 8.0 μM ATP and 0.1 μCi [γ^33 P] ATP. The activity is assayed in the presence or absence of inhibitors, by measuring the incorporation of ^33P from [γ^33P] ATP into the poly(Glu,Tyr) substrate. The assay (30 μL) is carried out in 96-well plates at ambient temperature for 20 min and terminated by the addition of 20 μL of 125 mM EDTA. Subsequently, 40 μL of the reaction mixture is transferred onto Immobilon-PVDF membrane (Millipore, Bedford, Mass., USA) previously soaked for 5 min with methanol, rinsed with water, then soaked for 5 min with 0.5% H3PO4 and mounted on vacuum manifold with disconnected vacuum source. After spotting all samples, vacuum is connected and each well rinsed with 200 μL 0.5% H3PO4. Membranes are removed and washed 4× on a shaker with 1.0% H3PO4, once with ethanol. Membranes are counted after drying at ambient temperature, mounting in Packard TopCount 96-well frame, and addition of 10 μL/well of Microscint™ (Packard). IC50 values are calculated by linear regression analysis of the percentage inhibition of each compound in duplicate, at four concentrations (usually 0.01, 0.1, 1 and 10 μM). One unit of protein kinase activity is defined as 1 nmole of ^33P transferred from [γ3P] […]

IC50 (RET) [nM]	EC50 (ITD-Ba/F3) [nM]	EC50 (D835Y-Ba/F3) [nM]	melting point [°C]	IC50 (Flt-3) [nM]	Structure (SMILES)
–	0.1	11.7	257 to 258	–	CNc1nccc(Oc2ccc(NC(=O)Nc3ccc(CN4CCN(C(C)(C)C)CC4)c(C(F)(F)F)c3)cc2)n1 [Example 49, N-[4-(2-Methylamino-pyrimidin-4-yloxy)-phenyl]-N′-[4-(4-tert-butylpiperazinyl-methyl)-3-trifluoromethyl-phenyl]-urea]
–	–	–	118 to 123	160	CNc1cc(Oc2ccc(NC(=O)Nc3ccc(-c4cccnc4)c(C(F)(F)F)c3)cc2)ncn1 [Example 62, 1-[4-(6-Methylamino-pyrimidin-4-yloxy)-phenyl]-3-(4-pyridin-3-yl-3-trifluoromethyl-phenyl)-urea]
–	–	–	127 to 130	140	CNc1cc(Oc2ccc(NC(=O)Nc3ccc(-c4ccncc4)c(C(F)(F)F)c3)cc2)ncn1 [Example 63, 1-[4-(6-Methylamino-pyrimidin-4-yloxy)-phenyl]-3-(4-pyridin-4-yl-3-trifluoromethyl-phenyl)-urea]
–	–	–	106 to 109	340	CNc1cc(Oc2ccc(NC(=O)Nc3ccc(-c4cccc(C)n4)c(C(F)(F)F)c3)cc2)ncn1 [Example 64, 1-[4-(6-Methylamino-pyrimidin-4-yloxy)-phenyl]-3-[4-(6-methyl-pyridin-2-yl)-3-trifluoromethyl-phenyl]-urea]

Continued, molecule first:

Structure (SMILES)	IC50 (RET) [nM]	EC50 (ITD-Ba/F3) [nM]	EC50 (D835Y-Ba/F3) [nM]	melting point [°C]	IC50 (Flt-3) [nM]
CNc1cc(Oc2ccc(NC(=O)Nc3cc(CN(C)C)cc(C(F)(F)F)c3)cc2)ncn1 [1-(3-Dimethylaminomethyl-5-trifluoromethyl-phenyl)-3-[4-(6-methylamino-pyrimidin-4-yloxy)-phenyl]-urea]	110	–	–	–	–
CN1CCN(Cc2cc(NC(=O)Nc3ccc(Oc4cc(N)ncn4)cc3)cc(C(F)(F)F)c2)CC1 [1-[4-(6-Amino-pyrimidin-4-yloxy)-phenyl]-3-[3-(4-methyl-piperazin-1-ylmethyl)-5-trifluoromethyl-phenyl]-urea]	260	–	–	–	–
CNc1cc(Oc2ccc(NC(=O)Nc3cc(CN4CCN(C)CC4)cc(C(F)(F)F)c3)cc2)ncn1 [1-[4-(6-Methylamino-pyrimidin-4-yloxy)-phenyl]-3-[3-(4-methyl-piperazin-1-ylmethyl)-5-trifluoromethyl-phenyl]-urea]	590	–	–	–	–
CNc1nccc(Oc2ccc(NC(=O)Nc3ccc(CN4CCN(C(C)C)CC4)c(C(F)(F)F)c3)cc2)n1 [Example 46, N-[4-(2-Methylamino-pyrimidin-4-yloxy)-phenyl]-N′-[4-(4-isopropylpiperazin-1-ylmethyl)-3-trifluoromethyl-phenyl]-urea]	–	< 0.2	3.9	–	–
